Laboratory results reported in the NIST ThermoML archive (doi:10.1021/je7003963).
Numbers after ± are expanded uncertainties.

Experiment: mn = molality of the nth substance listed, in mol/kg
Settings: 293.15 K; for speed of sound / mass density: 101 kPa, Liquid; for speed of sound: Sing-around technique in a fixed-path interferometer; for mass density: Vibrating tube method

CN1CCN(CCCN2c3ccccc3Sc3ccc(C(F)(F)F)cc32)CC1.Cl.Cl [trifluoperazine dihydrochloride] + O
Settings	mass density [kg/m3]	speed of sound [m/s]	surface tension liquid-gas [mN/m]
m1 = 0.003	–	–	58.1 ± 2
m1 = 0.004	–	–	55.1 ± 1.9
m1 = 0.005	–	–	51.4 ± 1.8
m1 = 0.006	–	–	51.1 ± 1.8
m1 = 0.007	–	–	49.6 ± 1.7
m1 = 0.0079	999.369 ± 0.27	1484.1 ± 1.2	–
m1 = 0.008	–	–	47.7 ± 1.6
m1 = 0.00895	999.513 ± 0.27	1484.3 ± 1.2	–
m1 = 0.009	–	–	47.7 ± 1.6
m1 = 0.01	–	–	46.5 ± 1.6
m1 = 0.011	999.803 ± 0.28	1484.7 ± 1.2	–
m1 = 0.01547	1000.45 ± 0.28	1485.5 ± 1.3	–
m1 = 0.02109	1001.24 ± 0.28	1486.4 ± 1.3	–
m1 = 0.025	–	–	46 ± 1.6
m1 = 0.0286	1002.31 ± 0.29	1487.8 ± 1.3	–
m1 = 0.03996	1003.91 ± 0.3	1489.8 ± 1.3	–
m1 = 0.0492	1005.18 ± 0.3	1491.3 ± 1.3	–
m1 = 0.05	–	–	46.5 ± 1.6
m1 = 0.06004	1006.67 ± 0.31	1493 ± 1.3	–
m1 = 0.075	–	–	45.9 ± 1.6
m1 = 0.07991	1009.39 ± 0.33	1496.2 ± 1.4	–
m1 = 0.09979	1012.03 ± 0.34	1498.3 ± 1.4	–
m1 = 0.1	–	–	46.6 ± 1.6
m1 = 0.1248	1015.25 ± 0.36	1500.6 ± 1.4	–
m1 = 0.125	–	–	46.5 ± 1.6
m1 = 0.1496	1018.45 ± 0.38	1502.9 ± 1.4	–
m1 = 0.15	–	–	45.9 ± 1.6
m1 = 0.1737	1021.45 ± 0.4	1505.1 ± 1.5	–
m1 = 0.1994	1024.63 ± 0.43	1507.3 ± 1.5	–
m1 = 0.2245	1027.65 ± 0.45	1509.5 ± 1.6	–
m1 = 0.2494	1030.56 ± 0.47	1511.7 ± 1.6	–
m1 = 0.2749	1033.52 ± 0.5	1513.6 ± 1.6	–
m1 = 0.2998	1036.3 ± 0.52	1515.8 ± 1.6	–

Cl.Cl.OCCN1CCN(CCCN2c3ccccc3Sc3ccc(C(F)(F)F)cc32)CC1 [fluphenazine dihydrochloride] + O
Settings	mass density [kg/m3]	speed of sound [m/s]	surface tension liquid-gas [mN/m]
m1 = 0.001	–	–	59.1 ± 2
m1 = 0.002	–	–	57.9 ± 2
m1 = 0.003	–	–	54.5 ± 1.9
m1 = 0.004	–	–	51.1 ± 1.8
m1 = 0.005	–	–	49 ± 1.7
m1 = 0.006	–	–	49.9 ± 1.7
m1 = 0.00605	999.199 ± 0.28	1484.1 ± 1.2	–
m1 = 0.007	–	–	47.7 ± 1.6
m1 = 0.00716	999.381 ± 0.29	1484.6 ± 1.2	–
m1 = 0.00794	999.509 ± 0.29	1484.8 ± 1.2	–
m1 = 0.008	–	–	45.9 ± 1.6
m1 = 0.00898	999.679 ± 0.29	1485.1 ± 1.2	–
m1 = 0.01001	999.848 ± 0.29	1485.3 ± 1.2	–
m1 = 0.01999	1001.44 ± 0.29	1487.5 ± 1.3	–
m1 = 0.025	–	–	44.3 ± 1.5
m1 = 0.02935	1002.91 ± 0.3	1489.3 ± 1.3	–
m1 = 0.04	1004.55 ± 0.31	1491.5 ± 1.3	44.6 ± 1.6
m1 = 0.0506	1006.17 ± 0.32	1492.8 ± 1.3	–
m1 = 0.05999	1007.59 ± 0.32	1494.4 ± 1.3	–
m1 = 0.075	–	–	44 ± 1.5
m1 = 0.0803	1010.64 ± 0.34	1496.9 ± 1.4	–
m1 = 0.1	1013.53 ± 0.36	1499 ± 1.4	44.5 ± 1.6
m1 = 0.1248	1017.05 ± 0.38	1501.5 ± 1.4	–
m1 = 0.125	–	–	44.1 ± 1.5
m1 = 0.149	1020.45 ± 0.4	1503.8 ± 1.5	–
m1 = 0.15	–	–	44.6 ± 1.6
m1 = 0.1752	1023.98 ± 0.43	1506.3 ± 1.5	–
